Nine compounds from patent US9598420B2, “Benzodiazepine bromodomain inhibitor” (GlaxoSmithKline LLC, priority 2009, dated 2017) can be followed below.

Series [1] relates to LPS induced IL-6 secretion from whole blood. Briefly: Measurement of LPS Induced IL-6 Secretion from Whole Blood. The format is cell-based. The conditions noted are these: LPS 200 ng/ml, 24 hours, immunoassay, read-out: pIC50 (IL-6 levels) (converted). The procedure: Activation of monocytic cells by agonists of toll-like receptors such as bacterial lipopolysaccharide (LPS) results in production of key inflammatory mediators including IL-6. Such pathways are widely considered to be central to the pathophysiology of a range of auto-immune and inflammatory disorders.
After further incubation for 24 hours at 37 degrees, 140 ul of PBS are added to each well. The plates are sealed, shaken for 10 minutes and then centrifuged (2500 rpm×10 min). 100 ul of the supernatant are removed and IL-6 levels assayed by immunoassay (typically by MesoScale Discovery technology) either immediately or following storage at −20 degrees.

Broadly, the melting point is the temperature, or range, at which the solid turns liquid.

Some results are limits rather than exact numbers.

For `Cc1nnc2n1-c1ccc(O)cc1C(c1ccc(Cl)cc1)=N[C@H]2CC(=O)Nc1ccc(F)cc1`, the melting point was 222 °C (dec.). `COc1ccc2c(c1)C(c1ccc(Cl)cc1)=N[C@@H](CC(=O)NC1CCCCC1)c1nnc(C)n1-2` (stereo in doubt) registered a melting point of over 260 °C. As to `COc1ccc2c(c1)C(c1ccc(Cl)cc1)=N[C@@H](CC(=O)Nc1ccccc1F)c1nnc(C)n1-2` [Example 9, 2-[(4S)-6-(4-chlorophenyl)-1-methyl-8-(methyloxy)-4H-[1,2,4]triazolo[4,3-a][1,4]benzodiazepin-4-yl]-N-(2-fluorophenyl)acetamide], the melting point was found to be 264 °C. Also, the IC50 in series [1] was at most 10 µM. With `COc1ccc2c(c1)C(c1ccc(Cl)cc1)=N[C@@H](CC(=O)Nc1cccc(F)c1)c1nnc(C)n1-2` [Example 10, 2-[(4S)-6-(4-chlorophenyl)-1-methyl-8-(methyloxy)-4H-[1,2,4]triazolo[4,3-a][1,4]benzodiazepin-4-yl]-N-(3-fluorophenyl)acetamide], the melting point is 248 °C. In addition, in series [1], the IC50 is at most 10 µM. With `COc1ccc2c(c1)C(c1ccc(Cl)cc1)=N[C@@H](CC(=O)Nc1ccncc1)c1nnc(C)n1-2` [Example 14, 2-[(4S)-6-(4-chlorophenyl)-1-methyl-8-(methyloxy)-4H-[1,2,4]triazolo[4,3-a][1,4]benzodiazepin-4-yl]-N-4-pyridinylacetamide], the melting point was found to be 223 °C. In turn, `COc1ccc2c(c1)C(c1ccc(Cl)cc1)=N[C@@H](CC(=O)Nc1nccs1)c1nnc(C)n1-2` [Example 15, 2-[(4S)-6-(4-chlorophenyl)-1-methyl-8-(methyloxy)-4H-[1,2,4]triazolo[4,3-a][1,4]benzodiazepin-4-yl]-N-1,3-thiazol-2-ylacetamide] came in with a melting point of 249 °C. Also, the IC50 in series [1] was at most 10 µM.

`COc1ccc2c(c1)C(c1ccc(Cl)cc1)=NC(CC(=O)Nc1nccs1)c1nnc(C)n1-2` (stereo not drawn) [Example 64]: in series [1], the IC50 is at most 10 µM. On the same count and under the same terms, the result for `COc1ccc2c(c1)C(c1ccc(Cl)cc1)=NC(CC(=O)Nc1ccc(F)cc1)c1nnc(C)n1-2` (stereo not drawn) [Example 67] reads at most 10 µM. Same read-out and setting: the result for `CCNC(=O)C[C@@H]1N=C(c2ccc(Cl)cc2)c2ccc(OC)cc2-n2c(C)nnc21` [Example 69] reads at most 10 µM.
